According to US20130210034A1, “COMPLEX PHOSPHOPROTEIN ACTIVATION PROFILES” (BECKMAN COULTER, INC., priority 2005, published 2013):

System: pERK and pS6
Experiment: Comparison of SCF-stimulated pERK and pS6 (pERK/pS6 ratios) in healthy donor and AML bone marrow samples
Format: cell-based, human
Description: In an attempt to dissect the differences between the pERK and pS6 kinetic profiles in healthy donor and AML bone marrow sampless, SCF-stimulated pERK and pS6 data derived from AML1, ALM2, and healthy donors 6 to 9 were analyzed from four different perspectives: MFI, the frequency of positive-stained cells, the ratio of positive to negative cells, and fold stimulation (FIG. 10 and Table 10). The ratio of positives to negative cells was calculated by estimating the AUC of both positive- and negative-stained cells at each t=n, and then expressing this as the ratio of positives to negatives. The fold stimulation was the fold change of the positive/negative ratio at t=n over the baseline ratio at t=0 min. […] However, this was not the case in the AML samples.

With Stem Cell Factor [SCF] the “Fold Stimulation, pERK/pS6” value (AML1) was 1.4, the “Frequency, pERK/pS6” value (AML1) was 0.92 and the “MFI, pERK/pS6” value (AML1) was 0.48. The “Positives/Negatives, pERK/pS6” value (AML1) was 0.29, the “Fold Stimulation, pERK/pS6” value (AML2) was 2.1 and the “Frequency, pERK/pS6” value (AML2) was 0.93. For the same substance, the “MFI, pERK/pS6” value (AML2) was 0.54, the “Positives/Negatives, pERK/pS6” value (AML2) was 0.32 and the “[(pERK)max:(pS6)max]MFI ratio” value (AML samples) was “about 0.5”. For the same substance, the “[(pERK)max:(pS6)max]POS/NEG ratio” value (AML samples) was “about 0.3”, the “Fold Stimulation, pERK/pS6” value (healthy donors 6 to 9) was 5.3 and the “Frequency, pERK/pS6” value (healthy donors 6 to 9) was 3.1. For the same substance, the “MFI, pERK/pS6” value (healthy donors 6 to 9) was 3.6 and the “Positives/Negatives, pERK/pS6” value (healthy donors 6 to 9) was 11.
